Assay: Mass balance (excretion of total radioactivity) after 2-h IV infusion of [^14C]brincidofovir
Type: in vivo, male Sprague Dawley rats
Procedure: All animals were obtained from Hilltop Lab Animals, Inc. (Scottdale, Pa.). Rats weighed between 214 and 265 g at dosing. […] Three dosing formulations (one for high dose IV, one for low dose IV, and one for PO dose) were prepared at QPS on the day of dosing. […] The IV dose formulation for Group 5 and the PO dose formulation for Groups 6 and 7 contained higher concentration of buffer so that the final buffer concentration was approximately 10 mM in all dose formulations. […] Urine samples were collected from each animal into pre-labeled urine collection tubes at pre-dose (overnight) and at intervals of 0-8 h, 8-24 h, and at every subsequent 24 h interval until 168 h post-dose. All urine specimens were collected over dry ice. The total weight of each urine collection was documented, and the samples were stored frozen at approximately −70° C. until LSC analysis. Samples were maintained at approximately −70° C. following analysis, and were saved for further analysis, to be conducted under a separate protocol. Feces samples were collected from each animal into a pre-labeled feces collection tube at pre-dose (overnight) and at 24 h intervals post-dose until 168 h post-dose. Feces specimens were collected over dry ice and the total weight of each feces sample was documented. Feces samples were stored at approximately −70° C. until homogenization and LSC analysis, were maintained at approximately −70° C. following analysis, and were saved for further analysis, to be conducted under a separate protocol. Feces were homogenized and analyzed for total radioactivity content. […] The actual weights of the individual aliquots and the amount of solvent used in homogenization were recorded. Pre-weighed portions of each feces homogenate were placed into a CombustoCone® that contained a CombustoPad®, allowed to dry over-night in a fume hood, and were burned completely in the sample oxidizer. […] Volumes or weights of sample aliquots were documented in the study records.

CCCCCCCCCCCCCCCCOCCCOP(=O)(O)CO[C@H](CO)Cn1ccc(N)nc1=O [[^14C]brincidofovir]
Radioactivity recovered in feces (15 mg/kg 2-h IV, 168 h): 42.2 % of administered dose | Radioactivity recovered in urine (15 mg/kg 2-h IV, 168 h): 51.2 % of administered dose | Total recovery in urine and feces combined (168 h): 93.5 % of the dose | Percent Recovery of total radioactivity (Feces 0-24 h, Mean, 15 mg/kg IV): 36.7 % Dose | Percent Recovery of total radioactivity (Feces 0-24 h, Rat 01, 15 mg/kg IV): 37.3 % Dose | Percent Recovery of total radioactivity (Feces 0-24 h, Rat 02, 15 mg/kg IV): 37.6 % Dose | Percent Recovery of total radioactivity (Feces 0-24 h, Rat 03, 15 mg/kg IV): 35.1 % Dose | Percent Recovery of total radioactivity (Feces 24-48 h, Mean, 15 mg/kg IV): 3.8 % Dose | Percent Recovery of total radioactivity (Feces 24-48 h, Rat 01, 15 mg/kg IV): 3.4 % Dose | Percent Recovery of total radioactivity (Feces 24-48 h, Rat 02, 15 mg/kg IV): 4.6 % Dose | Percent Recovery of total radioactivity (Feces 24-48 h, Rat 03, 15 mg/kg IV): 3.5 % Dose | Percent Recovery of total radioactivity (Feces 48-72 h, Mean, 15 mg/kg IV): 0.9 % Dose | Percent Recovery of total radioactivity (Feces 48-72 h, Rat 01, 15 mg/kg IV): 0.9 % Dose | Percent Recovery of total radioactivity (Feces 48-72 h, Rat 02, 15 mg/kg IV): 1.0 % Dose | Percent Recovery of total radioactivity (Feces 48-72 h, Rat 03, 15 mg/kg IV): 0.8 % Dose | Percent Recovery of total radioactivity (Feces 72-96 h, Mean, 15 mg/kg IV): 0.4 % Dose | Percent Recovery of total radioactivity (Feces 72-96 h, Rat 01, 15 mg/kg IV): 0.4 % Dose | Percent Recovery of total radioactivity (Feces 72-96 h, Rat 02, 15 mg/kg IV): 0.4 % Dose | Percent Recovery of total radioactivity (Feces 72-96 h, Rat 03, 15 mg/kg IV): 0.4 % Dose | Percent Recovery of total radioactivity (Feces 96-120 h, Mean, 15 mg/kg IV): 0.2 % Dose | Percent Recovery of total radioactivity (Feces 96-120 h, Rat 01, 15 mg/kg IV): 0.2 % Dose | Percent Recovery of total radioactivity (Feces 96-120 h, Rat 02, 15 mg/kg IV): 0.2 % Dose | Percent Recovery of total radioactivity (Feces 96-120 h, Rat 03, 15 mg/kg IV): 0.2 % Dose | Percent Recovery of total radioactivity (Feces 120-144 h, Mean, 15 mg/kg IV): 0.1 % Dose | Percent Recovery of total radioactivity (Feces 120-144 h, Rat 01, 15 mg/kg IV): 0.1 % Dose | Percent Recovery of total radioactivity (Feces 120-144 h, Rat 02, 15 mg/kg IV): 0.1 % Dose | Percent Recovery of total radioactivity (Feces 120-144 h, Rat 03, 15 mg/kg IV): 0.1 % Dose | Percent Recovery of total radioactivity (Feces 144-168 h, Mean, 15 mg/kg IV): 0.1 % Dose | Percent Recovery of total radioactivity (Feces 144-168 h, Rat 01, 15 mg/kg IV): 0.1 % Dose | Percent Recovery of total radioactivity (Feces 144-168 h, Rat 02, 15 mg/kg IV): 0.1 % Dose | Percent Recovery of total radioactivity (Feces 144-168 h, Rat 03, 15 mg/kg IV): 0.1 % Dose | Percent Recovery of total radioactivity (Feces Subtotal (0-168 h), Mean, 15 mg/kg IV): 42.2 % Dose | Percent Recovery of total radioactivity (Feces Subtotal (0-168 h), Rat 01, 15 mg/kg IV): 42.4 % Dose | Percent Recovery of total radioactivity (Feces Subtotal (0-168 h), Rat 02, 15 mg/kg IV): 44.2 % Dose | Percent Recovery of total radioactivity (Feces Subtotal (0-168 h), Rat 03, 15 mg/kg IV): 40.2 % Dose | Percent Recovery of total radioactivity (Total urine + feces (0-168 h), Mean, 15 mg/kg IV): 93.5 % Dose | Percent Recovery of total radioactivity (Total urine + feces (0-168 h), Rat 01, 15 mg/kg IV): 93.6 % Dose | Percent Recovery of total radioactivity (Total urine + feces (0-168 h), Rat 02, 15 mg/kg IV): 91.6 % Dose | Percent Recovery of total radioactivity (Total urine + feces (0-168 h), Rat 03, 15 mg/kg IV): 95.2 % Dose | Percent Recovery of total radioactivity (Urine 0-8 h, Mean, 15 mg/kg IV): 31.0 % Dose | Percent Recovery of total radioactivity (Urine 0-8 h, Rat 01, 15 mg/kg IV): 33.0 % Dose | Percent Recovery of total radioactivity (Urine 0-8 h, Rat 02, 15 mg/kg IV): 29.3 % Dose | Percent Recovery of total radioactivity (Urine 0-8 h, Rat 03, 15 mg/kg IV): 30.7 % Dose | Percent Recovery of total radioactivity (Urine 8-24 h, Mean, 15 mg/kg IV): 12.8 % Dose | Percent Recovery of total radioactivity (Urine 8-24 h, Rat 01, 15 mg/kg IV): 10.7 % Dose | Percent Recovery of total radioactivity (Urine 8-24 h, Rat 02, 15 mg/kg IV): 11.5 % Dose | Percent Recovery of total radioactivity (Urine 8-24 h, Rat 03, 15 mg/kg IV): 16.2 % Dose | Percent Recovery of total radioactivity (Urine 24-48 h, Mean, 15 mg/kg IV): 4.1 % Dose | Percent Recovery of total radioactivity (Urine 24-48 h, Rat 01, 15 mg/kg IV): 4.3 % Dose | Percent Recovery of total radioactivity (Urine 24-48 h, Rat 02, 15 mg/kg IV): 3.6 % Dose | Percent Recovery of total radioactivity (Urine 24-48 h, Rat 03, 15 mg/kg IV): 4.5 % Dose | Percent Recovery of total radioactivity (Urine 48-72 h, Mean, 15 mg/kg IV): 1.7 % Dose | Percent Recovery of total radioactivity (Urine 48-72 h, Rat 01, 15 mg/kg IV): 1.6 % Dose | Percent Recovery of total radioactivity (Urine 48-72 h, Rat 02, 15 mg/kg IV): 1.6 % Dose | Percent Recovery of total radioactivity (Urine 48-72 h, Rat 03, 15 mg/kg IV): 1.9 % Dose | Percent Recovery of total radioactivity (Urine 72-96 h, Mean, 15 mg/kg IV): 0.8 % Dose | Percent Recovery of total radioactivity (Urine 72-96 h, Rat 01, 15 mg/kg IV): 0.8 % Dose | Percent Recovery of total radioactivity (Urine 72-96 h, Rat 02, 15 mg/kg IV): 0.8 % Dose | Percent Recovery of total radioactivity (Urine 72-96 h, Rat 03, 15 mg/kg IV): 0.8 % Dose | Percent Recovery of total radioactivity (Urine 96-120 h, Mean, 15 mg/kg IV): 0.4 % Dose | Percent Recovery of total radioactivity (Urine 96-120 h, Rat 01, 15 mg/kg IV): 0.4 % Dose | Percent Recovery of total radioactivity (Urine 96-120 h, Rat 02, 15 mg/kg IV): 0.3 % Dose | Percent Recovery of total radioactivity (Urine 96-120 h, Rat 03, 15 mg/kg IV): 0.5 % Dose | Percent Recovery of total radioactivity (Urine 120-144 h, Mean, 15 mg/kg IV): 0.2 % Dose | Percent Recovery of total radioactivity (Urine 120-144 h, Rat 01, 15 mg/kg IV): 0.2 % Dose | Percent Recovery of total radioactivity (Urine 120-144 h, Rat 02, 15 mg/kg IV): 0.2 % Dose | Percent Recovery of total radioactivity (Urine 120-144 h, Rat 03, 15 mg/kg IV): 0.3 % Dose | Percent Recovery of total radioactivity (Urine 144-168 h, Mean, 15 mg/kg IV): 0.2 % Dose | Percent Recovery of total radioactivity (Urine 144-168 h, Rat 01, 15 mg/kg IV): 0.2 % Dose | Percent Recovery of total radioactivity (Urine 144-168 h, Rat 02, 15 mg/kg IV): 0.1 % Dose | Percent Recovery of total radioactivity (Urine 144-168 h, Rat 03, 15 mg/kg IV): 0.2 % Dose | Percent Recovery of total radioactivity (Urine Subtotal (0-168 h), Mean, 15 mg/kg IV): 51.2 % Dose | Percent Recovery of total radioactivity (Urine Subtotal (0-168 h), Rat 01, 15 mg/kg IV): 51.2 % Dose | Percent Recovery of total radioactivity (Urine Subtotal (0-168 h), Rat 02, 15 mg/kg IV): 47.5 % Dose | Percent Recovery of total radioactivity (Urine Subtotal (0-168 h), Rat 03, 15 mg/kg IV): 55.1 % Dose | Fecal excretion in first 24 h (rat, in vivo): 36.7 % of the dose | Fecal excretion in first 24 h, share of radioactivity excreted in feces (rat, in vivo): 87% | Share of urinary and fecal excretion in first 24 h (rat, in vivo): ~86% | Urinary excretion in first 24 h (rat, in vivo): 43.8 % of the dose | Urinary excretion in first 24 h, share of radioactivity excreted in urine (rat, in vivo): 86%

— patent US20170368082A1, “FORMULATIONS OF BRINCIDOFOVIR” (priority 2016, published 2017)
